Results on 16 molecules are retold here after US11524951B2, “2-(2,4,5-substituted-anilino)pyrimidine compounds” (AstraZeneca AB, priority 2011, dated 2022).

Molecules are shown by their SMILES.

What all share (type): cell-based
The target in one test is T1, L858R/T790M EGFR (Homo sapiens, UniProt P00533, L858R/T790M).
T1 construct: Assays to measure cellular phosphorylation of endogenous p-EGFR in cell lysates; endogenous in cells; host or cells: NCI-H1975 (human lung cell line)
Nature of the test: L858R/T790M EGFR (double mutant) cellular phosphorylation assay. The conditions noted are these: NCI-H1975 human lung cells; endogenous p-EGFR in cell lysates by ELISA; 2 h with compound. Here is the method:
Assay 2: L858R/T790M EGFR (Double Mutant) Cellular Phosphorylation Assay
The human lung cell lines NCI-H1975 were obtained from the American type Culture Collection. […] Cells were grown in a humidified incubator at 37° C. with 5% CO2.
Assays to measure cellular phosphorylation of endogenous p-EGFR in cell lysates were carried out according to the protocol described in the R&D Systems DuoSet IC Human Phospho-EGF R ELISA (R&D Systems catalogue number #DYC1095).
40 μL of cells were seeded (10000 cells/well) in growth medium in Corning black, clear-bottomed 384-well plates and incubated at 37° C. with 5% CO2 overnight. […] Plates were incubated for a further 2 h and following aspiration of medium, 40 μL 1× lysis buffer was added to each well. Greiner black high bind 384-well plates were coated with capture antibody and then blocked with 3% BSA. Following removal of block, 15 μL of lysate were transferred to the Greiner black high bind 384-well plates and incubated for 2 hours. Following aspiration and washing of the plates with PBS, 20 μL of detection antibody were added and incubated for 2 hours. […] 20 μL QuantaBlu stop solution were added to plates and fluorescence read on an Envision plate reader using
The data obtained with each compound was exported into a suitable software package (such as Origin) to perform curve fitting analysis.
On the technique in general: In an ELISA, binding on a coated surface is turned into a signal by an enzyme label.

A further test has as its target T2, Wild-type EGFR (Homo sapiens, UniProt P00533).
T2 construct: Assays to measure cellular phosphorylation of endogenous p-EGFR in cell lysates; endogenous in cells; host or cells: LoVo (human colon cell line)
Nature of the test: Wild-type EGFR cellular phosphorylation assay. The conditions noted are these: LoVo human colon cells; endogenous p-EGFR in cell lysates by ELISA; 2 h with compound, then stimulated 100 ng/ml for 10 minutes; read-out: Assay 3 (IC50). On the procedure: Assay 3: Wild-Type EGFR Cellular Phosphorylation Assay
The human colon cell line LoVo were obtained from the American type Culture Collection. […] Cells were grown in a humidified incubator at 37° C. with 5% CO2. Assays to measure cellular phosphorylation of endogenous p-EGFR in cell lysates were carried out according to the protocol described in the R&D Systems DuoSet IC Human Phospho-EGF R ELISA (R&D Systems catalogue number #DYC1095). 40 μL of cells were seeded (15000 cells/well) in growth medium in Corning black, clear-bottomed 384-well plates and incubated at 37° C. with 5% CO2 overnight. […] Plates were incubated for a further 2 h then stimulated with 100 ng/ml for 10 minutes and following aspiration of medium, 40 μL 1× lysis buffer was added to each well. Greiner black high bind 384-well plates were coated with capture antibody and then blocked with 3% BSA. […] Following aspiration and washing of the plates with PBS, 20 μL of detection antibody were added and incubated for 2 hours. […] The data obtained with each compound was exported into a suitable software package (such as Origin) to perform curve fitting analysis.

The next test addresses T3, Exon19 deletion EGFR (Homo sapiens, UniProt P00533, DEL746-750).
T3 construct: Assays to measure cellular phosphorylation of endogenous p-EGFR in cell lysates; endogenous in cells; host or cells: PC9 (human lung cell line)
In words: Exon19 deletion EGFR (activating single mutant) cellular phosphorylation assay. The conditions noted are these: PC9 human lung cells (Exon 19 deletion EGFR); endogenous p-EGFR in cell lysates by ELISA; 2 h with compound; read-out: Assay 1 (IC50). On the procedure: Assay 1: Exon19 Deletion EGFR (Activating Single Mutant) Cellular Phosphorylation Assay
The human lung cell line PC9 (Exon 19 deletion EGFR) were obtained from the American type Culture Collection. […] Cells were grown in a humidified incubator at 37° C. with 5% CO2. Assays to measure cellular phosphorylation of endogenous p-EGFR in cell lysates were carried out according to the protocol described in the R&D Systems DuoSet IC Human Phospho-EGF R ELISA (R&D Systems catalogue number #DYC1095). 40 μL of cells were seeded (10000 cells/well) in growth medium in Corning black, clear-bottomed 384-well plates and incubated at 37° C. with 5% CO2 overnight. […] Plates were incubated for a further 2 h, then following aspiration of medium, 40 μL 1× lysis buffer was added to each well. Greiner black high bind 384-well plates were coated with capture antibody and then blocked with 3% BSA. Following removal of block, […], of lysate were transferred to the Greiner black high bind 384-well plates and incubated for 2 hours. Following aspiration and washing of the plates with PBS, 20 μL of detection antibody were added and incubated for 2 hours. […] The data obtained with each compound was exported into a suitable software package (such as Origin) to perform curve fitting analysis.

T3 sequence (P00533 with tags, fused parts or gaps DEL746-750): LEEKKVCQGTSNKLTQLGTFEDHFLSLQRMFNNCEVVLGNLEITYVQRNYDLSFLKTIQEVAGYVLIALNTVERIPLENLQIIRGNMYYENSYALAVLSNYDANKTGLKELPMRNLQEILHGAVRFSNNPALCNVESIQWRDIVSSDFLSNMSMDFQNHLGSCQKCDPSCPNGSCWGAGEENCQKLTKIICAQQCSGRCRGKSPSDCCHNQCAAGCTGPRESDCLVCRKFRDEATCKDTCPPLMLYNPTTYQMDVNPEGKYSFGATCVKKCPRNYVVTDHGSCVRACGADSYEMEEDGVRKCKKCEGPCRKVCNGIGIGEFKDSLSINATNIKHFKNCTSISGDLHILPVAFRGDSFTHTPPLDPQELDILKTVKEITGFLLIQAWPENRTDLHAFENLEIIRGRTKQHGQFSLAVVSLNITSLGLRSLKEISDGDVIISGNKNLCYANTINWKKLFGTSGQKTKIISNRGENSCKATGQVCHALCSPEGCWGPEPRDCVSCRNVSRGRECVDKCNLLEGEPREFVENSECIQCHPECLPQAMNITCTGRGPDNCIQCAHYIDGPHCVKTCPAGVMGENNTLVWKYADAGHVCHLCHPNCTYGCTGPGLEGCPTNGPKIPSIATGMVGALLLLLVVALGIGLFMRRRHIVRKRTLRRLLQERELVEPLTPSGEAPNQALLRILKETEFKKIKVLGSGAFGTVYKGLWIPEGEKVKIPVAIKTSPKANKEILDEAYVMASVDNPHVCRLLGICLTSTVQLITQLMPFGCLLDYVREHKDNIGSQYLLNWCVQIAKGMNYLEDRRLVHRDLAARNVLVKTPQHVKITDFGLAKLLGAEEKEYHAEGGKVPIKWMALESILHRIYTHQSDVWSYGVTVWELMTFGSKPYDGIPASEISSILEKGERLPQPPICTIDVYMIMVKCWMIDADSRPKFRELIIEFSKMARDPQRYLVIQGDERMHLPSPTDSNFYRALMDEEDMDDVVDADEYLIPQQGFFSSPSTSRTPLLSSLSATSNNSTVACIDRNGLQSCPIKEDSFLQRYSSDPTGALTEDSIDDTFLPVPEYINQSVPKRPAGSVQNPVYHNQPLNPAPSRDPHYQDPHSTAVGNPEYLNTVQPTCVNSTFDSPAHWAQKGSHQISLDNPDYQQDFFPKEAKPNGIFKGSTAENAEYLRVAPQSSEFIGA
T2 sequence (P00533 25-1210): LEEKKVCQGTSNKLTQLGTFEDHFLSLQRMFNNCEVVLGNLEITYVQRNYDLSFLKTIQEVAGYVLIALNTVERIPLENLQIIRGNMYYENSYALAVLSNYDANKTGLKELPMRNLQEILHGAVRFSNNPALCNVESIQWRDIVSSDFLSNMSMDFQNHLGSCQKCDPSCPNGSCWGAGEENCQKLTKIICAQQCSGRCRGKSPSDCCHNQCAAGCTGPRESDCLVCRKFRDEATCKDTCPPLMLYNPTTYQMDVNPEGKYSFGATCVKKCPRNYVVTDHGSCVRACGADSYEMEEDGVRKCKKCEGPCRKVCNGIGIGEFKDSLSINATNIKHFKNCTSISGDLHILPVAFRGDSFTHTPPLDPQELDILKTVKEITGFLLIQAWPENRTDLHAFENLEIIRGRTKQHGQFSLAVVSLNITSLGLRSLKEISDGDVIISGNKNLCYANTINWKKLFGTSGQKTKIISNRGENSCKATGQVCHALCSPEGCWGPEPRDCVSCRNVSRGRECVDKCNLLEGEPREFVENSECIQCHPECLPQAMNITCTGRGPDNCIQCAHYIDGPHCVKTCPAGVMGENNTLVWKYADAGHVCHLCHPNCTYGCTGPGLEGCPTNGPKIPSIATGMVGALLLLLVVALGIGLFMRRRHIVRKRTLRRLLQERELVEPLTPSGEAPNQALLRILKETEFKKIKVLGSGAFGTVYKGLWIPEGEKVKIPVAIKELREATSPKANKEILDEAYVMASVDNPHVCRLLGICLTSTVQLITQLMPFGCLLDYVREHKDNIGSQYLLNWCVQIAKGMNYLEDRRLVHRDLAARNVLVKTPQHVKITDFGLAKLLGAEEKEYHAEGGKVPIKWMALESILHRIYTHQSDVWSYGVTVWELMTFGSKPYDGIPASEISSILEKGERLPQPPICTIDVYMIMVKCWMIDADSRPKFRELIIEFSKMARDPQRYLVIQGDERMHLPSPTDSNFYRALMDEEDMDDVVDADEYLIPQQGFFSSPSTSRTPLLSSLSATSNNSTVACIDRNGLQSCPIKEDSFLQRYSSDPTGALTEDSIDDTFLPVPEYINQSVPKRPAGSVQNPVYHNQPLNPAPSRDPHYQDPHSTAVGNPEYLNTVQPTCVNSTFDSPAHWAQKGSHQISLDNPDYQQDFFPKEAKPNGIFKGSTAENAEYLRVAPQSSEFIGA
T1 sequence (P00533 25-1210 T790M/L858R): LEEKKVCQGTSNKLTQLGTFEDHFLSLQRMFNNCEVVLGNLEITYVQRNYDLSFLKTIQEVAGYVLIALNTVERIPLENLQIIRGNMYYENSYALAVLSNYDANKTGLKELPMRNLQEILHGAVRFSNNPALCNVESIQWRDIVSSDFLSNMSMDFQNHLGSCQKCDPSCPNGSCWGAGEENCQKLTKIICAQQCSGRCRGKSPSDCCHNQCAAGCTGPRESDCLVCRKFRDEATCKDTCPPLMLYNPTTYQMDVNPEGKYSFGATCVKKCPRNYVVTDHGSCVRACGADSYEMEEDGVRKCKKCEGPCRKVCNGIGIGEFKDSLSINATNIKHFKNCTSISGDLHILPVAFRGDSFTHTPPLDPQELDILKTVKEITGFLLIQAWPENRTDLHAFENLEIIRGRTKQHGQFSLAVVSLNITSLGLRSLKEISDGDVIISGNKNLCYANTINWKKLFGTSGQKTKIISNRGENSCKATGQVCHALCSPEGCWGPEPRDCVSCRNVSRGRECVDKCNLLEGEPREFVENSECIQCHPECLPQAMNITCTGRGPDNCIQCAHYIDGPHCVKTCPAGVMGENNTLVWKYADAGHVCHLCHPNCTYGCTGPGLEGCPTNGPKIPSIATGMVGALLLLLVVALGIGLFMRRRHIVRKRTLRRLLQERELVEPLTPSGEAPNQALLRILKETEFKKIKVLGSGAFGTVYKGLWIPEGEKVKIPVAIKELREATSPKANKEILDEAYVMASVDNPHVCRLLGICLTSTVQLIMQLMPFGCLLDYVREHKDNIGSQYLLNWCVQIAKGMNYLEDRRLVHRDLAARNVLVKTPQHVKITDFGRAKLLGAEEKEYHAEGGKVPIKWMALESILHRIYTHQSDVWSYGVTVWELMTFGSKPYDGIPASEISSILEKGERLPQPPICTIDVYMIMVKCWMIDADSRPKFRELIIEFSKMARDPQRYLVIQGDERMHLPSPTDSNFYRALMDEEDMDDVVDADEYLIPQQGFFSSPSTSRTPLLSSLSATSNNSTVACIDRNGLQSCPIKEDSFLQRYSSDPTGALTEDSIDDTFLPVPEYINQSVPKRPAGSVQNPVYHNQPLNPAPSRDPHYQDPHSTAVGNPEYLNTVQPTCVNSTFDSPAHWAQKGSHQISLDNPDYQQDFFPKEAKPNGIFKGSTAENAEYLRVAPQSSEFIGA

For orientation: IC50 means the midpoint of a concentration-inhibition curve. For `C=CC(=O)Nc1cc(Nc2ncc(C)c(-c3cn(C)c4ccccc34)n2)c(OC)cc1N(C)CCN(C)C` [Example 19, N-(2-{2-Dimethylaminoethyl-methylamino}-4-methoxy-5-{[5-methyl-4-(1-methylindol-3-yl)pyrimidin-2-yl]amino}phenyl)prop-2-enamide], the IC50 on L858R/T790M EGFR came to 1.46 nM; at Wild-type EGFR, 70.8 nM; on Exon19 deletion EGFR, 2.15 nM.
Taken in the same sequence, the figures for `C=CC(=O)Nc1cc(Nc2ncc(C)c(-c3cn(C)c4ccccc34)n2)c(OC)cc1N1CC[C@@H](N(C)C)C1` [Example 20, N-(2-{(3R)-3-Dimethylaminopyrrolidin-1-yl}-4-methoxy-5-{[5-methyl-4-(1-methylindol-3-yl)pyrimidin-2-yl]amino}phenyl)prop-2-enamide] were 5.28 nM, 193 nM and 7.49 nM.
Taken in the same sequence, the figures for `C=CC(=O)Nc1cc(Nc2ncc(Cl)c(-c3cn(C)c4ccccc34)n2)c(OC)cc1N1CC[C@@H](N(C)C)C1` [Example 21, N-(5-{[5-Chloro-4-(1-methylindol-3-yl)pyrimidin-2-yl]amino}-2-{(3R)-3-dimethylaminopyrrolidin-1-yl}-4-methoxyphenyl)prop-2-enamide] were 2.34 nM, 128 nM and 2.95 nM.
Consider `C=CC(=O)Nc1cc(Nc2ncc(C#N)c(-c3cn(C)c4ccccc34)n2)c(OC)cc1N1CC[C@@H](N(C)C)C1` [Example 22, N-(5-{[5-Cyano-4-(1-methylindol-3-yl)pyrimidin-2-yl]amino}-2-{(3R)-3-dimethylaminopyrrolidin-1-yl}-4-methoxyphenyl)prop-2-enamide], for which the IC50 at L858R/T790M EGFR was determined as 1.52 nM; at Wild-type EGFR, 73.4 nM; on Exon19 deletion EGFR, 2.14 nM.
The corresponding values for `C=CC(=O)Nc1cc(Nc2ncc(C#N)c(-c3cn(C)c4ccccc34)n2)c(OC)cc1N1CCN(C)CC1` [Example 23, N-(5-{[5-Cyano-4-(1-methylindol-3-yl)pyrimidin-2-yl]amino}-4-methoxy-2-{4-methylpiperazin-1-yl}phenyl)prop-2-enamide] are 17.6 nM, 3020 nM and 16.9 nM.
Taken in the same sequence, the figures for `C=CC(=O)Nc1cc(Nc2ncc(Cl)c(-c3c[nH]c4ccccc34)n2)c(OC)cc1N1CC[C@@H](N(C)C)C1` [Example 24, N-(5-{[5-Chloro-4-(1H-indol-3-yl)pyrimidin-2-yl]amino}-2-{(3R)-3-dimethylaminopyrrolidin-1-yl}-4-methoxyphenyl)prop-2-enamide] were 0.886 nM, 35.7 nM and 1.33 nM.
The corresponding values for `C=CC(=O)Nc1cc(Nc2ncc(Cl)c(-c3c[nH]c4ccccc34)n2)c(OC)cc1N(C)CCN(C)C` [Example 25, N-(5-{[5-Chloro-4-(1H-indol-3-yl)pyrimidin-2-yl]amino}-2-{2-dimethyl-aminoethyl-methylamino}-4-methoxyphenyl)prop-2-enamide] are 0.238 nM, 10.9 nM and 0.581 nM.
Take `C=CC(=O)Nc1cc(Nc2ncc(Cl)c(-c3cn(C)c4ccccc34)n2)c(OC)cc1N(C)CCN(C)C` [Example 26, N-(5-{[5-Chloro-4-(1-methylindol-3-yl)pyrimidin-2-yl]amino}-2-{2-dimethylaminoethyl-methylamino}-4-methoxyphenyl)prop-2-enamide]: the IC50 was 1.93 nM at L858R/T790M EGFR, 58.3 nM on Wild-type EGFR and 2.29 nM on Exon19 deletion EGFR.
Taken in the same sequence, the figures for `C=CC(=O)Nc1cc(Nc2ncc(C#N)c(-c3c[nH]c4ccccc34)n2)c(OC)cc1N1CCN(C)CC1` [Example 27, N-(5-{[5-Cyano-4-(1H-indol-3-yl)pyrimidin-2-yl]amino}-4-methoxy-2-{4-methylpiperazin-1-yl}phenyl)prop-2-enamide] were 11.4 nM, 318 nM and 5.61 nM.
Taken in the same sequence, the figures for `C=CC(=O)Nc1cc(Nc2ncc(C#N)c(-c3cn(C)c4ccccc34)n2)c(OC)cc1N(C)CCN(C)C` [Example 29, N-(5-{[5-Cyano-4-(1-methylindol-3-yl)pyrimidin-2-yl]amino}-2-{2-dimethylaminoethyl-methylamino}-4-methoxyphenyl)prop-2-enamide] were 0.885 nM, 46.5 nM and 1.23 nM.
Taken in the same sequence, the figures for `C=CC(=O)Nc1cc(Nc2ncc(Cl)c(-c3cnn4ccccc34)n2)c(OC)cc1N(C)CCN1CCOCC1` [Example 31, N-{5-[(5-Chloro-4-pyrazolo[1,5-a]pyridin-3-ylpyrimidin-2-yl)amino]-4-methoxy-2-[methyl-(2-morpholin-4-ylethyl)amino]phenyl}prop-2-enamide] were 7.34 nM, 2510 nM and 37.5 nM.
With `C=CC(=O)Nc1cc(Nc2ncc(Cl)c(-c3cnn4ccccc34)n2)c(OC)cc1N(C)CCN1CCN(C)CC1` [Example 32, N-(5-{[5-Chloro-4-pyrazolo[1,5-a]pyridin-3-ylpyrimidin-2-yl]amino}-4-methoxy-2-{methyl-[2-(4-methylpiperazin-1-yl)ethyl]amino}phenyl)prop-2-enamide], the IC50 at L858R/T790M EGFR was 23.8 nM; on Wild-type EGFR, 10500 nM; at Exon19 deletion EGFR it was 138 nM.
The corresponding values for `C=CC(=O)Nc1cc(Nc2ncc(Cl)c(-c3cn(C)c4ccccc34)n2)c(OC)cc1N1CC(N(C)C)C1` [Example 34, N-(5-{[5-Chloro-4-(1-methylindol-3-yl)pyrimidin-2-yl]amino}-2-{3-dimethylaminoazetidin-1-yl}-4-methoxyphenyl)prop-2-enamide] are 3.77 nM, 153 nM and 9.04 nM.
The corresponding values for `C=CC(=O)Nc1cc(Nc2ncc(C)c(-c3cn(C)c4ccccc34)n2)c(OC)cc1N1CC(N(C)C)C1` [Example 35, N-(2-{3-Dimethylaminoazetidin-1-yl}-4-methoxy-5-{[5-methyl-4-(1-methylindol-3-yl)pyrimidin-2-yl]amino}phenyl)prop-2-enamide] are 6.77 nM, 262 nM and 8.57 nM.
Regarding `C=CC(=O)Nc1cc(Nc2nccc(-c3cn(C)c4ccccc34)n2)c(OC)cc1N1CC(N(C)C)C1` [Example 36, N-(2-{3-Dimethylaminoazetidin-1-yl}-4-methoxy-5-{[4-(1-methylindol-3-yl)pyrimidin-2-yl]amino}phenyl)prop-2-enamide], the values for the IC50 at L858R/T790M EGFR, at Wild-type EGFR and at Exon19 deletion EGFR were 32.7 nM, 1050 nM and 43.3 nM, respectively.
With `C=CC(=O)Nc1cc(Nc2ncc(Cl)c(-c3c[nH]c4ccccc34)n2)c(OC)cc1N1CC(N(C)C)C1` [Example 37, N-(5-{[5-Chloro-4-(1H-indol-3-yl)pyrimidin-2-yl]amino}-2-{3-dimethylaminoazetidin-1-yl}-4-methoxyphenyl)prop-2-enamide], the IC50 at L858R/T790M EGFR stood at 1.81 nM; at Wild-type EGFR, 48.6 nM; at Exon19 deletion EGFR, 2.11 nM.
